The values below come from PMC10057893, “Synthesis and Biological Evaluation of New Schiff Bases Derived from 4-Amino-5-(3-fluorophenyl)-1,2,4-triazole-3-thione” (Molecules, 2023).

Data set [1] deals with yeast reference strains (Candida spp.). Briefly: Positive control antifungal, broth microdilution MIC. The class given is cell-based. The following applies: range over yeast reference strains. The procedure: The reference antibiotics used during our studies for the selected species of reference bacteria were ciprofloxacin and cefuroxime (Merck KGaA, Darmstadt, Germany). Nystatin (Merck KGaA, Darmstadt, Germany), a known antifungal antibiotic, was used as a positive control for Candida spp.
All reference antimicrobials against bacteria or fungi were tested in a final concentration range from 0.0049 to 10 µg/mL. The tested Schiff bases were two-fold diluted in the concentration range from 0.49 to 1000 μg/mL in culture broth medium for bacteria or fungi. The medium with DMSO at the final concentrations and without the tested Schiff bases served as a control—no microbial growth inhibition was observed. Three types of control were also carried out simultaneously: (1) serial dilution of the tested Schiff bases in broth medium (without bacteria or fungi) in the same concentration range, (2) a growth control for each strain in broth medium and agar medium for bacteria or fungi, and (3) a negative control of sterile broth or agar medium. […]
After incubation, 5 μL of the broth media cultured with bacteria or fungi were removed from each well of the plates used in the MIC experiments. […] After incubation, a visual reading of MBC or MFC values was made. […]
For orientation: In broth dilution the organism is exposed to a series of concentrations in liquid medium.

The test system of a further data set is Candida auris CDC B11903. Briefly: Broth microdilution MIC/MFC, antifungal. The settings on record: Candidozyma auris, CDCB11903. In kind it is cell-based. Here is the method: (§1) To determine the antifungal activity of the newly synthesized Schiff bases against the reference strains of Candida spp., the broth microdilution method was used according to the EUCAST [52] and Clinical and Laboratory Standards Institute (CLSI) guidelines with some modifications to the medium. Before in vitro antifungal activity detection, the basic concentration of 1000 µg/mL of each compound was prepared with Mueller–Hinton broth (BioMaxima, Lublin, Poland) supplemented with 2% glucose (MHB+2% glucose). […] The final concentrations of the Schiff bases ranged from […] to 1000 µg/mL. All the reference strains of Candida spp. used were first subcultured to the Mueller–Hinton agar medium (BioMaxima, Lublin, Poland) with 2% glucose (MHA +2% glucose) at 37 °C for 24 h. Next, 2 µL of appropriate fungal suspensions was added to each well containing 100 µL of MHB + 2% glucose and the various concentrations of the tested Schiff bases.
(§2) After incubation, 5 μL of the broth media cultured with bacteria or fungi were removed from each well of the plates used in the MIC experiments. Next, they were culturd onto the surface of the MHA medium (BioMaxima, Lublin, Poland) plate for bacteria or MHA +2% glucose plate for yeasts. The inoculated plates were incubated in the conditions mentioned above. After incubation, a visual reading of MBC or MFC values was made. […] Three replicates for each strain and compound were performed.

Data set [2] deals with Candida glabrata ATCC 90030. Briefly: Broth microdilution MIC/MFC, antifungal. The following applies: Nakaseomyces glabratus, ATCC90030. The class given is cell-based. The procedure: as §1, §2
The test system of data set [3] is Candida glabrata ATCC 15126. Briefly: Broth microdilution MIC/MFC, antifungal. In kind it is cell-based. The settings on record: Nakaseomyces glabratus, ATCC15126. The procedure:
as §1, §2

The test system of data set [4] is Candida krusei ATCC 14243. Briefly: Broth microdilution MIC/MFC, antifungal. In kind it is cell-based. The settings on record: Pichia kudriavzevii, ATCC14243. The procedure: as §1, §2
The subject of data set [5] is Candida lusitaniae ATCC 3449. Briefly: Broth microdilution MIC/MFC, antifungal. The settings on record: Clavispora lusitaniae, ATCC3449. The class given is cell-based. The procedure:
as §1, §2

The test system of data set [6] is Candida albicans ATCC 10231. Briefly: Broth microdilution MIC/MFC, antifungal. In kind it is cell-based. The following applies: ATCC10231. The procedure:
as §1, §2

For data set [7], the system named is Candida tropicalis ATCC 1369. As to the kind of experiment: Broth microdilution MIC/MFC, antifungal. In kind it is cell-based. The following applies: ATCC1369. Here is the method:
as §1, §2

Data set [8] relates to Staphylococcus epidermidis ATCC 12228. Briefly: Broth microdilution MIC/MBC, antibacterial. In kind it is cell-based. The following applies: ATCC12228. Here is the method: (§3) The minimal inhibitory concentration (MIC) was determined with the microdilution technique using 96-well polystyrene microplates (Medlab, Poland), as indicated by the European Committee on Antimicrobial Susceptibility Testing (EUCAST) guidelines. In this process, stock solutions of each tested Schiff base dissolved in dimethylsulphoxide (DMSO, Stanlab, Poland) were used at a concentration of 50 mg/mL. Before in vitro antibacterial activity detection, the basic concentration of 1000 µg/mL of each compound was prepared with Mueller–Hinton broth medium (MHB, BioMaxima, Lublin, Poland). The experiment was prepared using Mueller–Hinton broth medium in 96-well microplates. A series of two-fold dilutions of the tested compounds in the concentration range from 0.49 to 1000 μg/mL was made in culture broth medium. Then, 2 μL of bacterial inoculum with a density of 0.5 McFarland standard was added to each well. Each well was filled with a total volume of 100 μL. Then, the microtiter plates were incubated for 18 ± 2 h at 35 °C. After the incubation, the results were spectrophotometrically determined in Biotek ELx800 (Biokom, Janki, Poland) at 600 nm (OD600). The lowest concentration of the tested compounds with the absence of bacterial growth was determined as an MIC. Three replicates for each strain and compound were performed.
as §2

The test system of data set [9] is Staphylococcus aureus ATCC 6538. Briefly: Broth microdilution MIC/MBC, antibacterial. In kind it is cell-based. The settings on record: ATCC6538. Here is the method: as §3, §2
In data set [10] the test system is Micrococcus luteus ATCC 10240. As to the kind of experiment: Broth microdilution MIC/MBC, antibacterial. The class given is cell-based. The following applies: ATCC10240. Here is the method: as §3, §2
Data set [11] concerns Bacillus subtilis ATCC 6633. Briefly: Broth microdilution MIC/MBC, antibacterial. The following applies: ATCC6633. The class given is cell-based. Here is the method:
as §3, §2

The test system of data set [12] is Pseudomonas aeruginosa ATCC 27853. As to the kind of experiment: Broth microdilution MIC/MBC, antibacterial. The following applies: ATCC27853. In kind it is cell-based. Here is the method: as §3, §2
Data set [13] relates to Klebsiella pneumoniae ATCC 13883. As to the kind of experiment: Broth microdilution MIC/MBC, antibacterial. In kind it is cell-based. The following applies: ATCC13883, Klebsiella pneumoniae ATCC 13883. Here is the method:
as §3, §2

For data set [14], the system named is Escherichia coli ATCC 25922. As to the kind of experiment: Broth microdilution MIC/MBC, antibacterial. The following applies: ATCC25922, Escherichia coli ATCC 25922. In kind it is cell-based. Here is the method: as §3, §2
The nature of a further data set: MTT cell viability assay. In kind it is cell-based. The settings on record: human, HaCaT cells (immortal keratinocytes), HaCaT normal cell line, read-out: Cytotoxic activity IC50 (converted). (Tetrazolium dyes change colour on reduction, which living cells bring about.)
The subject of data set [15] is tested strains of bacteria. Also noted: method as in PMID 25412038. The following applies: cited from earlier work.
Another data set relates to C. albicans. Also noted: method as in PMID 25412038. The settings on record: cited from earlier work.
A further data set concerns PC3. Briefly: MTT cell viability assay. In kind it is cell-based, human. The settings on record: Homo sapiens, PC-3, PC3, MTT, read-out: Cytotoxic activity IC50.
The next data set concerns MDA-MB-231. As to the kind of experiment: MTT cell viability assay. The class given is cell-based, human. The following applies: Homo sapiens, MDA-MB-231, MTT, read-out: Cytotoxic activity IC50.

Converted amounts (≈) assume the structure as drawn. Where two headings read alike, the source gives them in different places.

`C[C@@H]1[C@H](O)[C@@H](C)/C=C/C=C/CC/C=C/C=C/C=C/C=C/C(O[C@H]2O[C@H](C)[C@@H](O)[C@H](N)[C@@H]2O)CC2O[C@](O)(CC(O)C(O)CCC(O)CC(O)CC(O)CC(=O)O[C@H]1C)CC(O)C2C(=O)O` (stereo partly shown) [Nystatin] gave an MIC in data set [1] of 0.24 to 0.48 µg/mL. In data set [1] (printed MIC = MBC), this molecule came in with an MBC of 0.24 to 0.48 µg/mL.
For the molecule `Fc1ccc(C=Nn2c(-c3cccc(F)c3)n[nH]c2=S)cc1` [RO7, 4-[(4-fluorobenzylidene)amino]-5-(3-fluorophenyl)-2,4-dihydro-3H-1,2,4-triazole-3-thione], the melting point was in the range of 217 to 218 °C. In addition, the minimum inhibitory concentration (MIC) in the data set on Candida auris CDC B11903 was greater than 1000 µg/mL. The MIC in [2] is greater than 1000 µg/mL. For the same molecule, the MIC in data set [3] was greater than 1000 µg/mL. This molecule also showed an MIC in data set [4] greater than 1000 µg/mL. The molecule further showed an MIC in [5] greater than 1000 µg/mL. In addition, the MIC in [6] was greater than 1000 µg/mL. Besides, the MIC in [7] is greater than 1000 µg/mL. In addition, in [8], the MBC is greater than 1000 µg/mL and the MIC came out at 500 µg/mL (≈ 1.58 mM). In data set [9], the MBC was greater than 1000 µg/mL and inhibition of growth (MIC) required 500 µg/mL (≈ 1.58 mM). In data set [10], this molecule returned an MBC greater than 1000 µg/mL and an MIC of 250 µg/mL (≈ 0.79 mM). For the same molecule, the MIC in [11] was greater than 1000 µg/mL. The same molecule came in with a minimum inhibitory concentration (MIC) in [12] greater than 1000 µg/mL. This molecule also yielded a minimum inhibitory concentration (MIC) in data set [13] greater than 1000 µg/mL. Further, the minimum inhibitory concentration (MIC) in [14] was greater than 1000 µg/mL. Besides, the IC50 at 72 h in “MTT cell viability assay” (72 h (table footnote)) is greater than 100 µM. In “MTT cell viability assay” (same value in µg/mL), the IC50 at 72 h is greater than 31.6 µg/mL. The MICs in data set [15] was 16 to 125 µg/mL. For the same molecule, the MIC in the data set with C. albicans is given as 4 µg/mL (≈ 0.0126 mM). Also, in the data set on PC3 (72 h (table footnote)), the IC50 was greater than 100 µM. Further, the IC50 with PC3 (same value in µg/mL) was greater than 31.6 µg/mL. Further, in the data set on MDA-MB-231 (72 h (table footnote)), the concentration for half-maximal inhibition (IC50) was greater than 100 µM. Also, the IC50 with MDA-MB-231 (same value in µg/mL) was greater than 31.6 µg/mL.

The MIC is the least concentration at which growth counts as inhibited. For orientation: melting point means the temperature, or range, at which the solid turns liquid. By IC50 is commonly meant the concentration needed to halve the response being measured.
